Source: ChEMBL document CHEMBL2074107, “Zoledronic acid is synergic with vinblastine to induce apoptosis in a multidrug resistance protein-1 dependent way: an in vitro study” (Cell Biol Int, 2006)

Target: Multidrug resistance-associated protein 1 (Homo sapiens, UniProt P33527)
Assay: TP_TRANSPORTER: inhibition of apoptosis in hMRP1-expressing HEK293 cells
Format: functional, cell-based

Multidrug resistance-associated protein 1, sequence (P33527 whole entry): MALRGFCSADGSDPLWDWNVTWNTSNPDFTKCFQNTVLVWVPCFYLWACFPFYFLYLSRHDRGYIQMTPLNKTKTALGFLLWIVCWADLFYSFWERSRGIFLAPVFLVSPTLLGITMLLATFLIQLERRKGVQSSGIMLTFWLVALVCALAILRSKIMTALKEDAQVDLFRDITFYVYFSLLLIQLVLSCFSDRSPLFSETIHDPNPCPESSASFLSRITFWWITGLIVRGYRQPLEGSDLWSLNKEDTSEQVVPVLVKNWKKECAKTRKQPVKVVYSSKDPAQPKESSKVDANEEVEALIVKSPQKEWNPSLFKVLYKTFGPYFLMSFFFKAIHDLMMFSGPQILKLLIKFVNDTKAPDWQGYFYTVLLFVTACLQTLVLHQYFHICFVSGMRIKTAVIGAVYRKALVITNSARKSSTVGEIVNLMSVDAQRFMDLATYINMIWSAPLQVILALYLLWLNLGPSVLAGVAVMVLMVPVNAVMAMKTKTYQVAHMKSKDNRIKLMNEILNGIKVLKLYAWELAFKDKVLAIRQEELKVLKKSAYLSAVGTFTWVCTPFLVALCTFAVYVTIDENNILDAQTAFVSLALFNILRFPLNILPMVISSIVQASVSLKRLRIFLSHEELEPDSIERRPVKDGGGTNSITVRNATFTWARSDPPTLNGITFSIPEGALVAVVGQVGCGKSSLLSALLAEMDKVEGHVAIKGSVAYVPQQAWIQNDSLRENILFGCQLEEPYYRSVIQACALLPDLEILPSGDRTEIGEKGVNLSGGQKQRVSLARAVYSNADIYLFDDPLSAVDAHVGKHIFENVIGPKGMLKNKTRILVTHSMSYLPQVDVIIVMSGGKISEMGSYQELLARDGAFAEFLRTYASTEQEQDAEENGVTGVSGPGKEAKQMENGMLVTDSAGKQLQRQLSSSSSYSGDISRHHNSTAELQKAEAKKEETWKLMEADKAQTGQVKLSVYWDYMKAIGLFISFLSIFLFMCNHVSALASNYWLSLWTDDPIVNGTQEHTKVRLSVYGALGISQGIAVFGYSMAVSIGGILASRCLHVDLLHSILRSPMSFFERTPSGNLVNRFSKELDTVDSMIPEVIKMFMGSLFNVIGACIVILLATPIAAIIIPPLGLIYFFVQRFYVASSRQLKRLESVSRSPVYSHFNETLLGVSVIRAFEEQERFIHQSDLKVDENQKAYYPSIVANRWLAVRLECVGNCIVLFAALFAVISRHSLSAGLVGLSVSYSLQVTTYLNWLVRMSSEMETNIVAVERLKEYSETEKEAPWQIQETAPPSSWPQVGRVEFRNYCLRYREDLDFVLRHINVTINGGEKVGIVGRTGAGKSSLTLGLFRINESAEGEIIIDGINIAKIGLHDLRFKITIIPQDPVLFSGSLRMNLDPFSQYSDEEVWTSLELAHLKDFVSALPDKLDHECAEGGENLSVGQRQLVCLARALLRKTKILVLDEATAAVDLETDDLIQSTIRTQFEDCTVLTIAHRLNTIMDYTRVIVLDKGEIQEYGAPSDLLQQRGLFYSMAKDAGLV

Row | Compound | Activity
1 | CC[C@]1(O)C[C@@H]2CN(CCc3c([nH]c4ccccc34)[C@@](C(=O)OC)(c3cc4c(cc3OC)N(C)[C@H]3[C@@](O)(C(=O)OC)[C@H](OC(C)=O)[C@]5(CC)C=CCN6CC[C@]43[C@@H]65)C2)C1 [VINBLASTINE] | substrate []
2 | O.O=P(O)(O)C(O)(Cn1ccnc1)P(=O)(O)O [ZOLEDRONIC ACID] | substrate []
